Laboratory results taken from PubChem BioAssay AID1189 (EPA DSSTox, 2008).
The source made the active and inactive calls.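 Rule for the calls: active = a tumor-causing dose value with its tumor site reported for any sex and species group of a rodent or other animal cancer study; inconclusive = only studies judged inadequate by the national testing program; inactive = tested in at least one study, none positive.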

Assay: DSSTox (CPDBAS) Carcinogenic Potency Database Summary SingleCellCall Results
Details: animal chronic carcinogenicity bioassays, CPDB summary call
Method in brief: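 Literature-derived summary: each substance receives an overall carcinogenic/non-carcinogenic category drawn from long-term bioassays in rats, mice, hamsters, dogs or primates, using the most positive sex-species experiment and minimal evidence criteria.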
With `O.[Cd+2].[Cl-].[Cl-]` the outcome was “inactive”. For `COc1ccc(N)cc1N`, the outcome was “active”. In the case of `OC(O)C(Cl)(Cl)Cl`, the outcome is reported as “active; inactive”. With `Nc1ccc(-c2ccc(N)c(O)c2)cc1O` the outcome was “active”. In the case of `CC1CN1P(=O)(N1CC1C)N1CC1C` (stereo not drawn), the outcome is reported as “active”. With `Nc1nnc(-c2ccc([N+](=O)[O-])o2)s1` the outcome was “active”. In the case of `Cc1cc(O)ccc1O`, the outcome is reported as “inactive; active”. For `Cc1cnc(NC(=O)C2=C(O)c3ccccc3S(=O)(=O)N2C)s1`, the outcome was “inactive”. For `O=NN(CCO)CC(O)CO` (stereo not drawn), the outcome was “active”. For `CC1CN(N=O)CC(C)N1N=O` (stereo not drawn), the outcome was “active”. With `O=C1C=CC(=O)C=C1` the outcome was “active”. With `CCC[N+](=O)[O-]` the outcome was “inactive”. For `CNCCc1ccc(OC(=O)C(C)C)c(OC(=O)C(C)C)c1`, the outcome was “inactive”. For `CN(N=O)c1ccc(F)cc1`, the outcome was “active”. With `CN(C)C(=O)NC1CC2CC1C1CCCC21` (stereo not drawn) the outcome was “inactive”. With `N[C@@H](CS)C(=O)O` the outcome was “inactive”. In the case of `CNCc1ccc(CSCCNC(=NCC(O)c2ccc(O)cc2)NS(C)(=O)=O)o1` (stereo not drawn), the outcome is reported as “active; inactive”. For `CC[C@]1(O)CC2CN(CCc3c([nH]c4ccccc34)[C@@](C(=O)OC)(c3cc4c(cc3OC)N(C)[C@H]3[C@@](O)(C(=O)OC)[C@H](OC(C)=O)[C@]5(CC)C=CCN6CC[C@]43[C@@H]65)C2)C1` (stereo partly drawn), the outcome was “inactive”. For `Oc1ccccc1`, the outcome was “inactive”. In the case of `ClC1(Cl)C2(Cl)C3(Cl)C4(Cl)C(Cl)(Cl)C5(Cl)C3(Cl)C1(Cl)C5(Cl)C24Cl` (stereo not drawn), the outcome is reported as “active; inactive”. For `CN(N=O)C(=O)NCCC[C@H](N)C(=O)O`, the outcome was “active”. With `O=C(O[C@@H]1Cc2c(O)cc(O)cc2O[C@@H]1c1cc(O)c(O)c(O)c1)c1cc(O)c(O)c(O)c1` the outcome was “inactive”. In the case of `O=[As](O)(O)O`, the outcome is reported as “inactive”. For `C=CCO`, the outcome was “inactive; active”. In the case of `O=C1OC(C(O)CO)C(O)=C1O` (stereo not drawn), the outcome is reported as “inactive”. With `CN(C)P(=O)(N(C)C)N(C)C` the outcome was “active”. For `CN[C@H]1CC[C@@H](c2ccc(Cl)c(Cl)c2)c2ccccc21`, the outcome was “inactive”. With `CC1=CC(=C(c2ccc(N)cc2)c2ccc(N)cc2)C=CC1=N` the outcome was “inactive”. With `ClCC(Cl)CCl` the outcome was “active; inactive”. In the case of `COc1ccc(C)cc1N`, the outcome is reported as “active”. With `CCCN(CCC)S(=O)(=O)c1ccc(C(=O)O)cc1` the outcome was “active”. For `[O-][Br+2]([O-])O`, the outcome was “active”. In the case of `O=C1C(O)N=C(c2ccccc2F)c2cc(Cl)ccc2N1CCO` (stereo not drawn), the outcome is reported as “inactive”. For `C/C=C/C=O`, the outcome was “active”. With `COc1ccc(CCN2CCC(Nc3nc4ccccc4n3Cc3ccc(F)cc3)CC2)cc1` the outcome was “inactive”. With `Cn1c(N)nc2c3cccnc3ccc21` the outcome was “active; inactive”. With `OCCBr` the outcome was “active; inactive”. For `Cc1ccc(NC(N)=O)cc1`, the outcome was “active”. With `CC(O)CNC(=O)N(N=O)C(C)Cl` (stereo not drawn) the outcome was “active”. For `O=C1CCC(=O)O1`, the outcome was “inactive”. For `NC(N)=O`, the outcome was “inactive”. With `S=C=NCCCCCCc1ccccc1` the outcome was “inactive”. For `O=S(=O)(Oc1ccc(Cl)cc1)c1ccc(Cl)cc1`, the outcome was “inactive”. For `O=c1cc[nH]c(=S)[nH]1`, the outcome was “active; inactive”. In the case of `O=NN(CCCC(F)(F)F)CCCC(F)(F)F`, the outcome is reported as “active”. In the case of `C=COC(C)=O`, the outcome is reported as “active”. In the case of `CCCCN(N)C=O`, the outcome is reported as “active”. In the case of `CN(N=O)C(=O)c1ccccc1C(=O)N(C)N=O`, the outcome is reported as “inactive”. For `Nc1cc([N+](=O)[O-])ccc1O`, the outcome was “active”. With `CC1=C[C@H]2O[C@@H]3[C@H](O)[C@@H](O)[C@@](C)(C34CO4)[C@@]2(CO)[C@H](O)C1=O` (stereo partly drawn) the outcome was “inactive; active”. In the case of `NC(=O)N(CC(=O)O)N=O`, the outcome is reported as “active; inactive”. For `CN(C)C(=S)[S][Bi]([S]C(=S)N(C)C)[S]C(=S)N(C)C`, the outcome was “inactive”. With `O=NN(CC(F)(F)F)CC(F)(F)F` the outcome was “inactive”. In the case of `c1ccc2cc(Nc3ccc(Nc4ccc5ccccc5c4)cc3)ccc2c1`, the outcome is reported as “inactive; active”. For `CCCCN(CCCC)C(=S)[S-].CCCCN(CCCC)C(=S)[S-].[Zn+2]`, the outcome was “inactive”. For `CC(F)(Cl)Cl`, the outcome was “active”. For `CC1=C(C)C(=O)C(C(CCCCCC(=O)O)c2ccccc2)=C(C)C1=O` (stereo not drawn), the outcome was “inactive”. In the case of `COP(=O)(OC)O/C(=C\Cl)c1cc(Cl)c(Cl)cc1Cl`, the outcome is reported as “active; inactive”. With `Nc1ccc(-c2ccc(F)cc2)cc1` the outcome was “active”. In the case of `Cc1ccc([N+](=O)[O-])cc1`, the outcome is reported as “active”. In the case of `COc1ccc2nc(S(=O)Cc3ncc(C)c(OC)c3C)[nH]c2c1` (stereo not drawn), the outcome is reported as “active”. In the case of `CN(N=O)C1=Nc2ccc(Cl)cc2C(c2ccccc2)=[N+]([O-])C1`, the outcome is reported as “inactive”. In the case of `Nc1ccc(Cl)cc1N`, the outcome is reported as “active”. For `NC(=O)N/N=C/c1ccc([N+](=O)[O-])o1`, the outcome was “active”. In the case of `COC(=O)C1=C(C)NC(C)=C(C(=O)OCCc2ccc(N3CCN(C(c4ccccc4)c4ccccc4)CC3)cc2)C1c1cccc([N+](=O)[O-])c1` (stereo not drawn), the outcome is reported as “inactive; active”. In the case of `NC(=S)Nc1cccc2ccccc12`, the outcome is reported as “inactive”. For `Clc1ccc(Cl)cc1`, the outcome was “active”. With `CN(C)C(=O)Nc1ccc(Cl)c(Cl)c1` the outcome was “inactive”. With `CN(C)c1ccc(C(=N)c2ccc(N(C)C)cc2)cc1` the outcome was “active”. In the case of `CC(COc1ccccc1)N(CCCl)Cc1ccccc1` (stereo not drawn), the outcome is reported as “active; inactive”. In the case of `ClCOCCCCCCOCCl`, the outcome is reported as “inactive”. With `NC(=S)NNS(=O)(=O)c1ccccc1` the outcome was “inactive”. In the case of `O=C(O)c1nn(Cc2ccc(Cl)cc2Cl)c2ccccc12`, the outcome is reported as “inactive”. In the case of `CC(C)CCCCCCOC(=O)c1ccccc1C(=O)OCCCCCCC(C)C`, the outcome is reported as “active; inactive”. In the case of `CC=O`, the outcome is reported as “active; inactive”. For `P`, the outcome was “inactive”. For `CC(CN1c2ccccc2Sc2ccccc21)N(C)C` (stereo not drawn), the outcome was “inactive”. For `C=C1C(C)(C)[C@@]2(Cl)C(Cl)[C@]1(Cl)C(Cl)(Cl)C2(Cl)Cl` (stereo partly drawn), the outcome was “active”. For `O=C/C(Cl)=C(/Cl)C(=O)O`, the outcome was “inactive”. In the case of `O=C(O)CN(CC(=O)O)CC(=O)O`, the outcome is reported as “active”. For `CCOc1ccc(NC(=O)CC(C)O)cc1` (stereo not drawn), the outcome was “active”. With `CCOC(=O)CC(SP(=S)(OC)OC)C(=O)OCC` (stereo not drawn) the outcome was “inactive”. With `C1CCC(C(CC2CCCCN2)C2CCCCC2)CC1` (stereo not drawn) the outcome was “inactive”. With `CC(CN1CC(=O)NC(=O)C1)N1CC(=O)NC(=O)C1` (stereo not drawn) the outcome was “active”. In the case of `CC1CN(N=O)CC(C)N1C` (stereo not drawn), the outcome is reported as “active”. With `FC(F)(Cl)C(F)(Cl)Cl` the outcome was “inactive; active”. With `O=P(OCC(Br)CBr)(OCC(Br)CBr)OCC(Br)CBr` (stereo not drawn) the outcome was “active”. In the case of `O=S1(=O)CC=CC1`, the outcome is reported as “inactive”. With `C=CC(=C)C` the outcome was “active”. For `ClC(Cl)Cl`, the outcome was “active”. In the case of `CN(C#N)N=O`, the outcome is reported as “active”. In the case of `CCCCC(CC)CO` (stereo not drawn), the outcome is reported as “active; inactive”. For `Cc1ccc2c(c1[N+](=O)[O-])C(=O)c1ccccc1C2=O`, the outcome was “active”. For `CC(=O)Nc1nc(NC(C)=O)nc(-c2ccc([N+](=O)[O-])o2)n1`, the outcome was “active”. With `CCCCCCCCCCN(C)N=O` the outcome was “active”. With `ClC(Cl)=C(Cl)Cl` the outcome was “active; inactive”. In the case of `CCCN=[N+]([O-])CCC`, the outcome is reported as “active”. In the case of `C=CC(=O)c1ccc2c(c1)OCO2`, the outcome is reported as “inactive”. For `C=CC1=C(C)C2=CC3=NC(=C(CC(=O)[O-])C4=NC(=C(C)C4=C([O-])[O-])C=c4[n-]c(c(C)c4CC)=CC1=N2)[C@@H](CCC(=O)[O-])[C@@H]3C.[Cu+2].[Na+].[Na+].[Na+]`, the outcome was “inactive”. With `CCCCCCCCCCC(C)c1ccc(S(=O)(=O)O)cc1` (stereo not drawn) the outcome was “inactive”. With `ClCOCCl` the outcome was “active; inactive”. For `CCC(C(=O)NC(N)=O)c1ccccc1` (stereo not drawn), the outcome was “inactive”. For `Cc1cccc(Nc2cc(Cl)nc(SCC(=O)NCCO)n2)c1C`, the outcome was “active; inactive”. For `C/C=C/Cl`, the outcome was “active”. With `Cn1c(=O)c2c(ncn2C)n(C)c1=O` the outcome was “inactive”. In the case of `NCCc1ccc(O)c(O)c1`, the outcome is reported as “inactive”. For `CN(CCCO)N=O`, the outcome was “active; inactive”. With `CCCCCCOc1cc(C)c(O)c(C)c1C` the outcome was “inactive; active”. With `CC(C)(c1ccc(O)cc1)c1ccc(O)cc1` the outcome was “inactive; active”. With `Cc1ccccc1OCC(O)CNCCn1cc(C)c(=O)[nH]c1=O` (stereo not drawn) the outcome was “inactive”. With `C=CCc1ccc(OC)cc1` the outcome was “active”. In the case of `FC(F)OC(F)(F)C(F)Cl` (stereo not drawn), the outcome is reported as “inactive”. For `O=S1OCCO1`, the outcome was “inactive”. For `O=C1C=C(N2CC2)C(=O)C(N2CC2)=C1N1CC1`, the outcome was “active”. In the case of `C=C1C(CCl)(CCl)C2(Cl)C(Cl)C(Cl)C1(Cl)C2(Cl)Cl` (stereo not drawn), the outcome is reported as “active; inactive”. For `Cc1ccc(Cc2cnc(NCCSCc3ccc(CN(C)C)o3)[nH]c2=O)cn1`, the outcome was “active”. In the case of `Oc1ccc(OCc2ccccc2)cc1`, the outcome is reported as “inactive; active”. With `FC(F)(F)CCl` the outcome was “active; inactive”. With `NN` the outcome was “active”. With `O=[N+]([O-])c1ccc2ccc3cccc4ccc1c2c34` the outcome was “active”. With `CN(CCc1ccccc1)N=O` the outcome was “active”. For `Nc1cc(Cl)c(N)c(Cl)c1`, the outcome was “active; inactive”. In the case of `O=[N+]([O-])c1cc([As](=O)(O)O)ccc1O`, the outcome is reported as “inactive”. For `O=[N+]([O-])c1ccccc1`, the outcome was “active”. For `CCC1(CCC(C)C)C(=O)NC(=O)NC1=O`, the outcome was “inactive”. In the case of `C[C@]12CC[C@@H]3c4ccc(OC(=O)Cc5ccc(N(CCCl)CCCl)cc5)cc4CC[C@H]3[C@@H]1CC[C@@H]2OC(=O)Cc1ccc(N(CCCl)CCCl)cc1`, the outcome is reported as “active”. For `O=CNc1nc(-c2ccc([N+](=O)[O-])o2)cs1`, the outcome was “active”. In the case of `CN(N=O)c1cccnc1`, the outcome is reported as “inactive”. With `c1ccc2c(c1)[nH]c1ccccc12` the outcome was “active”. In the case of `COc1cc2c(c3oc(=O)c4c(c13)CC[C@H]4O)[C@@H]1C=CO[C@H]1O2`, the outcome is reported as “active”. With `C=C1CC[C@H](O)C/C1=C/C=C1\CCC[C@]2(C)[C@@H]([C@H](C)CC[C@@H](O)C(C)(C)O)CC[C@@H]12` the outcome was “inactive; active”. With `CC(Oc1cc(Cl)c(Cl)cc1Cl)C(=O)O` (stereo not drawn) the outcome was “inactive”. With `c1ccccc1` the outcome was “active”.
